The text below walks through data of patent US9044428B2, “Neuritogenic peptides” (Neoloch ApS, priority 2005, dated 2015).

For assay [1], the system named is Cerebellar granule neuron (CGN) cultures. Kind of assay: Stimulation of neurite outgrowth from cerebellar granule neurons in vitro. It counts as cell-based, rat. The following applies: 24 h treatment of CGN cultures. The source says:
Cerebellar granule neuron (CGN) cultures were obtained from 3-4-day-old Wistar rats (Charles River, Sulzfeld, Germany, or Moellegaard, Denmark) as previously described by Schousboe et al. (1989). Briefly, the cerebella were dissected, cleared of meninges and blood vessels, chopped, and trypsinized. The neurons were washed in the presence of DNAse 1 and soybean trypsin inhibitor (Sigma), and cellular debris was pelleted by centrifugation; the cells resuspended and then plated on poly-L-lysine (PLL; Sigma)-coated or uncoated microtiter plates in Neurobasal medium supplemented with 4% (w/v) bovine serum albumin (BSA), 2% (v/v) B27, 1% (v/v) glutamax, 100 U/ml penicillin, 100 gi/ml streptomycin, 4.5 g D-glucose/L (Sigma) 0.25% (v/v) sodium pyruvate, and 2% (v/v) 1 M HEPES (Gibco BRL).

Assay [2] concerns human erythroleukemia cells TF-1. Nature of the assay: Proliferation of TF-1 cells (BrdU incorporation ELISA). The class given is cell-based. On the procedure: Evaluation of the effect of four EPO-derived peptides on cell proliferation was performed using a TF-1 cell line. The TF-1 cell line was established from sample from patient with severe pancytopenia (human erythroleukemia). The growth of these cells is dependent of the presence of the granulocyte-macrophage colony-stimulating factor (GM-SCF). The TF-1 cells were grown in Dulbecco's Modified Eagle Medium (DMEM) supplemented with 10% (v/v) heat inactivated foetal calf serum (FCS), 2 mM GlutaMAX, penicillin (100 U/ml) and streptomycin (100 μg/ml), 10 mM HEPES, 1 mM sodium pyruvate, 1% fungizone. The growth medium was supplemented with 2 ng/ml GM-CSF. Cell proliferation was determined using a Biotrak ELISA system, version 2 (Amersham Biosciences, UK). The procedure is based on measurement of the levels of 5-bromo-2′-deoxyuridine (BrdU) incorporation during DNA synthesis in proliferating cells. Briefly, passaged cells were washed once with starving medium (culturing medium without GM-CSF) then plated in 96-well Nuclon culture microplates (Nuno, Denmark) at a density of 5000 cells/well and grown in starving medium containing 0.008, 0.04, 0.2, 1.0, 5.0, 25 and 50 μg/ml of the tested compounds. As a positive control the human recombinant erythropoietin (EPO) (Calbiochem, Denmark) was used in a concentration of 2.0 ng/ml. TF-1 cells were allowed to grow in the presence of peptides for 24 h and than to all wells (except negative controls) BrdU was added to a final concentration of 10 μM and cultures were further incubated for 24 h, fixed and processed according to the procedure recommended by manufacturer, […]
(Dividing cells build labelled thymidine or BrdU into new DNA.)

Assay [3] deals with rat brain after TBI. Nature of the assay: Oxidative DNA damage after traumatic brain injury (8-oxoguanine immunostaining). The class given is in vivo. The following applies: s.c., 3 days after lesion. On the procedure: (§1) Male rats (wistar) (tree groups, 5 rats/group) were injected s.c with different Epo peptides (each group individually with Epo 2, Epo 3 or Epo 4) three times according to the scheme: • 1. the day before the lesion: a single injection of a peptide per animal (1 mg/100 g animal weight); • 2. the 1st day after the lesion: a single injection of a peptide per animal (1 mg/100 g animal weight): • 3. the 2nd day after the lesion: a single injection of a peptide per animal (1 mg/100 g animal weight); • 4. the 3rd day after the lesion: animals are sacrificed.
(§2) Control groups were a group (4 rats) injected with the vehicle (water) and a group (4 rats), injected with human recombinant EPO (hrEPO) in dose 50 μg/100 g rat according to the above scheme.
(§3) A traumatic brain injury (TBI) was induced by applying dry ice (−78 C) to the extracranial surface of the skull for 60 sec, which induces a focal injury in the right fronto-parietal cortex. Three days after the lesion (3 dpl) rats were deeply anesthetized with Brietal (10 mg/100 gr) and fixed by transcardial perfusion with 0.9% NaCl and 0.3% heparin, followed by Zamboni's fixative. The brains were removed, dehydrated according to the standard protocol, embedded in paraffin, and cut in 6-μm-thick frontal sections for further evaluation by immunohistochemistry and TUNEL.
(§4) For immunohistochemistry the sections of the brains were incubated overnight with polyclonal rabbit anti-cow GFAP, GAP-43, 8-oxoguanine, or PSA-NCAM antibodies 1:250 (Dakopatts). The primary antibodies were detected in the sections with biotinylated secondary antibodies followed by incubation with streptavidin-biotin-peroxidase (30 min). Afterwards, the sections were incubated with biotinylated tyramide and streptavidin-peroxidase complex (NEN, Life Science Products, USA, code NEL700A) prepared following the manufacturer recommendations, and visualized with 0.015% H2O2 in DAB/TBS for 10 min.

Assay [4] concerns rat brain after TBI. Kind of assay: Neuroplasticity and neurite outgrowth in vivo after TBI (PSA-NCAM and GAP-43 immunostaining). Here is the method: as §1, §2, §3, §4
Assay [5] deals with rat brain after TBI. Nature of the assay: Astrocytosis after traumatic brain injury (GFAP IHC). It counts as in vivo. The following applies: s.c., 3 days after lesion. Here is the method: as §1, §2
A traumatic brain injury (TBI) was induced by applying dry ice (−78 C) to the extracranial surface of the skull for 60 sec, which induces a focal injury in the right fronto-parietal cortex. […]
For immunohistochemistry the sections of the brains were incubated overnight with polyclonal rabbit anti-cow GFAP, GAP-43, 8-oxoguanine, or PSA-NCAM antibodies 1:250 (Dakopatts). The primary antibodies were detected in the sections with biotinylated secondary antibodies followed by incubation with streptavidin-biotin-peroxidase (30 min). […]

The nature of assay [6]: Hematocrit in rats after the brain lesion. It counts as in vivo. To be noted: rat after brain lesion, peptide 1 mg/100 g s.c., p>0.02. Here is the method: as §1, §2
Assay [7] has as its system Primary cultures of CGN. Kind of assay: Survival of CGN induced to undergo apoptosis (low KCl) in vitro. The class given is cell-based, rat. To be noted: apoptosis induced by reducing KCl to 5 mM, two days. Here is the method: Primary cultures of CGN were plated at a density of 100 000 cells/cm^2 on poly-L-lysine coated 8-well permanox slides in Neurobasal-A medium (Gibco BRL) supplemented with 2% (v/v) B27, 0.5% (v/v) glutamax, 100 units/mL penicillin, 100 μg/mL streptomycin and KCl, making the final concentration of KCl in the medium 40 mm, Twenty-four hours after plating, Ara-C (Sigma-Aldrich) was added to a final concentration of 10 μm to avoid proliferation of glial cells, after which the neurons were allowed to differentiate for a further 6 days at 37° C. Apoptotic cell death was induced by washing twice and changing the medium to Basal Medium Eagle (BME; Gibco BRL) supplemented with 1% (v/v) glutamine, 100 U/mL, penicillin and 100 μg/mL streptomycin, 3.5 g d-glucose/L and 1% (v/v) sodium pyruvate (Gibco BRL) together with various concentrations of peptide. Thereby the concentration of potassium in the cultures was reduced to 5 mm KCl (D'Mello et al. 1993). Two days after induction of apoptosis, the cells were fixed with 4% (v/v) formaldehyde and stained with Hoechst 33258 as described for the survival assay employing hippocampal neurons.

Assay [8] relates to rat brain after TBI. Kind of assay: Programmed cell death after traumatic brain injury (TUNEL). It counts as in vivo. To be noted: s.c., 3 days after lesion. Here is the method:
as §1, §2
A traumatic brain injury (TBI) was induced by applying dry ice (−78 C) to the extracranial surface of the skull for 60 sec, which induces a focal injury in the right fronto-parietal cortex. Three days after the lesion (3 dpl) rats were deeply anesthetized with Brietal (10 mg/100 gr) and fixed by transcardial perfusion with 0.9% NaCl and 0.3% heparin, followed by Zamboni's fixative. The brains were removed, dehydrated according to the standard protocol, embedded in paraffin, and cut in 6-μm-thick frontal sections for further evaluation by immunohistochemistry and TUNEL. […]

As for “DSRVLERYLLEAKE (Derived from human erythropoietin, Swiss Prot P01588) [Epo1, peptide fragment derived from human erythropoietin]”, the “neurite outgrowth from CGN (neuritogenic activity)” value (“neurite outgrowth from CGN” below) in assay [1] (listed as SEQ ID NO: 1) is listed as “do net have any neuritogenic activity”. For the same sequence, the entries for the “proliferation of TF-1 cells” value in assay [2] (concentration of 0.2 μg/ml) and in assay [2] (concentration of 50 μg/ml) were “probably had a stimulatory effect” and “stimulates proliferation of TF-1 cells”, respectively.
Consider “NENITVPDTKVNFYAWKR (Derived from human erythropoietin, Swiss Prot P01588) [Epo2, peptide fragment derived from human erythropoietin]”, for which, in assay [3], the “8-oxoguanine positive cells (oxidative DNA damage)” value was “lowest number of the 8-oxoguanine positive cells”. The “neurite outgrowth in vivo (GAP-43 immunostaining)” value in assay [4] (cortical lesion area, choroid plexus, hippocampus, hypothalamus) is listed as “stimulates neurite outgrowth”. Besides, the “astrocytosis (reactive astrogliosis) by GFAP IHC” value in assay [5] is listed as “mast pronounced increase in reactive astrogliosis”. Moreover, the “neurite outgrowth from CGN” value is reported as “capable of stimulating neurite outgrowth” in assay [1] and “strongly induce neurite outgrowth” in assay [1] (listed as SEQ ID NO: 2). Also, the entries for the “effect on the hematocrit vs control” value in assay [6] and in assay [6] (listed as Epo 2) were “no statistically significant effect” and “no significant effect”, respectively. For the same sequence, in assay [7], the “protection of CGN induced to undergo apoptosis (neuronal survival)” value is on record as “strongest neuroprotective effect”. In assay [2] (concentrations of 25 and 50 μg/ml), the “proliferation of TF-1 cells” value is listed as “stimulates proliferation of TF-1 cells”.
In the case of “RVYSNFLRGKLKLYTGEA (Derived from human erythropoietin, Swiss Prot P01588) [Epo4, peptide fragment derived from human erythropoietin]”, the “8-oxoguanine positive cells (oxidative DNA damage)” value in assay [3] is recorded as “significantly reduced oxidative DNA damage”. Also, in assay [4] (area adjusted to the lesion and subventricular zone), the “level of PSA-NCAM staining” value is recorded as “significantly increases the level of PSA-NCAM staining”. In addition, in assay [5], the “astrocytosis (reactive astrogliosis) by GFAP IHC” value was “least effect”. The “neurite outgrowth from CGN” value in assay [1] is reported as “capable of stimulating neurite outgrowth”; in assay [1] (listed as SEQ ID NO: 4), “strongly induce neurite outgrowth”. Also, the “effect on the hematocrit vs control” value in assay [6] was “no statistically significant effect”. The “TUNEL-positive apoptotic cells around the necrotic cavity” value in assay [8] is “lowest level of apoptosis”. Moreover, the “protection of CGN induced to undergo apoptosis (neuronal survival)” value in assay [7] was “strongest neuroprotective effect”. Moreover, in assay [2] (concentration of 50 μg/ml), the “proliferation of TF-1 cells” value was “stimulate proliferation of TF-1 cells”. Also, the “stimulation of haemopoietic cell proliferation (general conclusion)” value in assay [2] (no concentration stated) is “most potent among them”.
